# In ChEMBL document CHEMBL5352391, “New structural classes of antimalarials” (Eur J Med Chem, 2022):
# Key:
# Plasmodium falciparum [1] = assay: Antiplasmodial activity against chloroquine sensitive Plasmodium falciparum 3D7 assessed as inhibition of parasite growth incubated for 48 hrs by Malstat reagent based spectrophotometric; assay type: functional, organism-based; conditions: 3D7, 48 h
# Plasmodium falciparum [2] = assay: Antimalarial activity against Plasmodium falciparum 3D7 assessed as reduction of parasite growth at 25 uM incubated for 96 hrs by SYBR green I dye based fluorescence assay relative to control; assay type: functional; parameters: scale not given: the % may be the effect or the level left
# Plasmodium falciparum [3] = assay: Antiplasmodial activity against chloroquine resistant Plasmodium falciparum K14 assessed as inhibition of parasite growth incubated for 42 hrs by [3H]-hypoxanthine incorporation based microbeta scintillation counting method; assay type: functional, organism-based
# Plasmodium falciparum [4] = assay: Antimalarial activity against Plasmodium falciparum 3D7 assessed as inhibition of parasite growth by measuring minimum inhibitory concentration by microassay; assay type: functional
# Plasmodium falciparum [5] = assay: Antimalarial activity against chloroquine resistant Plasmodium falciparum assessed as inhibition of parasite growth; assay type: functional, organism-based
# Plasmodium falciparum [6] = assay: Antiplasmodial activity against chloroquine resistant Plasmodium falciparum K14 assessed as inhibition of parasite growth incubated for 48 hrs by [3H]-hypoxanthine incorporation based microbeta scintillation counting method; assay type: functional, organism-based
# Plasmodium falciparum [7] = assay: Antiplasmodial activity against Plasmodium falciparum 3D7 assessed as inhibition of parasite growth incubated for 72 hrs by LDH assay based spectrofluorometric analysis; assay type: functional, organism-based; conditions: 3D7, 72 h
# [8] = Selectivity index, ratio of CC50 for cytotoxicity against human HepG2 cells by MTT assay to EC50 for antiplasmodial activity against erythrocytic stage of Plasmodium falciparum NF54 by [3H]-hypoxanthine incorporation based liquid scintillation counting method; assay type: toxicity, cell-based; conditions: read-out: Ratio CC50/EC50
# Plasmodium falciparum [9] = assay: Antiplasmodial activity against erythrocytic stage of Plasmodium falciparum 3D7 assessed as reduction of parasite growth incubated for 100 hrs by SYBR Green dye based fluorescence assay; assay type: functional, organism-based; conditions: 3D7, 100 h
# [10] = Selectivity index, ratio of CC50 for cytotoxicity against human HepG2 cells by MTT assay to EC50 for antiplasmodial activity against erythrocytic stage of Plasmodium falciparum 3D7 by SYBR Green dye based fluorescence assay; assay type: toxicity, cell-based; conditions: read-out: Ratio CC50/EC50
# [11] = Selectivity index, ratio of CC50 for cytotoxicity against human HepG2 cells by MTT assay to EC50 for antiplasmodial activity against erythrocytic stage of Plasmodium falciparum K1 by [3H]-hypoxanthine incorporation based liquid scintillation counting method; assay type: toxicity, cell-based; conditions: read-out: Ratio CC50/EC50
# [12] = Cytotoxicity against human HepG2 cells assessed as reduction in cell viability incubated for 72 hrs by MTT assay; assay type: toxicity, cell-based
# Plasmodium falciparum [13] = assay: Antiplasmodial activity against erythrocytic stage of Plasmodium falciparum NF54 assessed as reduction of parasite growth incubated for 48 hrs by [3H]-hypoxanthine incorporation based beta-plate liquid scintillation counting method; assay type: functional, organism-based
# Plasmodium falciparum [14] = assay: Antiplasmodial activity against erythrocytic stage of Plasmodium falciparum K1 assessed as reduction of parasite growth incubated for 48 hrs by [3H]-hypoxanthine incorporation based beta-plate liquid scintillation counting method; assay type: functional, organism-based
# Plasmodium falciparum [15] = assay: Antiplasmodial activity against chloroquine resistant Plasmodium falciparum RKL-2 assessed as inhibition of parasite growth incubated for 36 to 40 hrs by Giemsa staining based microscopic analysis; assay type: functional, organism-based
# Plasmodium falciparum [16] = assay: Antimalarial activity against Plasmodium falciparum 3D7 assessed as reduction of parasite growth incubated for 96 hrs by SYBR green I dye based fluorescence assay; assay type: functional, organism-based; conditions: 3D7, 96 h
# Plasmodium falciparum [17] = assay: Antiplasmodial activity against chloroquine resistant Plasmodium falciparum Dd2 assessed as inhibition of parasite growth incubated for 72 hrs by LDH assay based spectrofluorometric analysis; assay type: functional, organism-based; conditions: Dd2, 72 h
# [18] = Retention time of the compound by HPLC-MS analysis; assay type: physicochemical
# Plasmodium falciparum [19] = assay: Antiplasmodial activity against Plasmodium falciparum K1 infected in human erythrocyte assessed as inhibition of parasite growth incubated for 72 hrs by [3H]-hypoxanthine incorporation based liquid scintillation counting method; assay type: functional, organism-based
# Plasmodium falciparum [20] = assay: Antiplasmodial activity against mixture of chloroquine resistant Plasmodium falciparum RKL 303-chloroquine sensitive Plasmodium falciparum 3D7 infected in human erythrocyte assessed as inhibition of parasite growth incubated for 48 hrs by Giemsa staining based microscopic analysis; assay type: functional, organism-based
smiles,measurement,setting,value
CC(=O)Nc1cc(-c2ccc(F)cc2)cc2c(C(=O)C(F)(F)F)c(-c3ccc(F)cc3)[nH]c12,IC50,Plasmodium falciparum [1],2.52 µM
COC(=O)[C@H](Cc1ccc(O)c(-c2ccc(Cl)cc2)c1)NC(=O)C(=O)c1c[nH]c2ccccc12,Activity,Plasmodium falciparum [2],60%
Oc1c(/C=N/c2ccccc2/N=C/c2cccc(CN3CCOCC3)c2O)cccc1CN1CCNCC1,IC50,Plasmodium falciparum [3],2.28 µM
COC(=O)[C@H](Cc1ccc(O)c(-c2ccccc2)c1)NC(=O)C(=O)c1c[nH]c2ccccc12,Activity,Plasmodium falciparum [2],60%
COC(=O)[C@H](Cc1ccc(O)c(-c2ccsc2)c1)NC(=O)C(=O)c1c[nH]c2ccccc12,Activity,Plasmodium falciparum [2],60%
Cc1ccc(C2=C/C(=C/c3cc4cc(C)ccc4nc3Cl)C(=O)O2)c(C)c1,MIC,Plasmodium falciparum [4],10 µg/mL
Nc1cc(Cl)c(S(N)(=O)=O)cc1-c1nnc(S)n1-c1ccccc1Cl,IC50,Plasmodium falciparum [5],0.025 µg/mL
COC(=O)[C@H](Cc1ccc(O)c(-c2cccc(O)c2)c1)NC(=O)C(=O)c1c[nH]c2ccccc12,Activity,Plasmodium falciparum [2],60%
COC(=O)[C@H](Cc1ccc(O)c(-c2ccc(C(C)=O)cc2)c1)NC(=O)C(=O)c1c[nH]c2ccccc12,Activity,Plasmodium falciparum [2],60%
O=C(Nc1ccc([C@@H]2[C@H](Oc3ccc(Cl)cc3Cl)C(=O)N2c2ccc(Cl)cc2)cc1)N1CCOCC1,IC50,Plasmodium falciparum [6],26 µM
C/C1=C\[C@H](C)CCC(=O)/C(C)=C/[C@H](C)C[C@@H](C)CC[C@@H]([C@@H](C)C(=O)O)OC(=O)[C@@H](C)C1,IC50,Plasmodium falciparum [7],9.81 µM
CC1(C)C2CC=C(CC(=O)Nc3ccnc4cc(Cl)ccc34)[C@@H]1C2,selectivity ratio,[8],0.7
same,EC50,Plasmodium falciparum [9],17.1 µM
same,selectivity ratio,[10],0.8
same,selectivity ratio,[11],1.8
same,CC50 at 72 h,[12],14.3 µM
same,EC50,Plasmodium falciparum [13],21.4 µM
same,EC50,Plasmodium falciparum [14],7.84 µM
CCN(Cc1cc(C2(C)OOC(c3ccccn3)OO2)ccc1O)c1ccccc1 (stereo unspecified),IC50,Plasmodium falciparum [15],5.3 µg/mL
CC1(C)C2CC=C(CC(=O)Nc3ccnc4ccccc34)[C@@H]1C2,selectivity ratio,[8],0.2
same,EC50,Plasmodium falciparum [9],26.4 µM
same,selectivity ratio,[10],0.2
same,selectivity ratio,[11],0.3
same,CC50 at 72 h,[12],3.98 µM
same,EC50,Plasmodium falciparum [13],23.4 µM
same,EC50,Plasmodium falciparum [14],13.9 µM
COC(=O)[C@H](Cc1ccc(O)c(C(=O)OCc2ccc(Nc3ccccc3)cc2)c1)NC(=O)C(=O)c1c[nH]c2ccccc12,Activity,Plasmodium falciparum [2],60%
Oc1c(/C=N/c2ccc(Oc3ccc(/N=C/c4cccc(CN5CCOCC5)c4O)cc3)cc2)cccc1CN1CCOCC1,IC50,Plasmodium falciparum [3],2.28 µM
COC(=O)[C@H](Cc1ccc(O)c(-c2ccc(Br)cc2)c1)NC(=O)C(=O)c1c[nH]c2ccccc12,EC50,Plasmodium falciparum [16],3.7 µM
same,Activity,Plasmodium falciparum [2],60%
CCN(Cc1cc(C2(C)OOC(c3ccco3)OO2)ccc1O)c1ccccc1 (stereo unspecified),IC50,Plasmodium falciparum [15],5.3 µg/mL
CC(=O)Nc1cc(-c2ccc(F)cc2)cc2cc(-c3ccc(F)cc3)[nH]c12,IC50,Plasmodium falciparum [1],1.43 µM
C/C1=C\[C@H](C)CC[C@@H](O)/C(C)=C/[C@H](C)C[C@@H](C)CC[C@@H]([C@@H](C)C(=O)O)OC(=O)[C@@H](C)C1,IC50,Plasmodium falciparum [17],0.032 µM
same,IC50,Plasmodium falciparum [7],0.013 µM
COc1ccc(-c2[nH]c3c(NC(C)=O)cc(/C=C/c4ccc(F)cc4)cc3c2C(=O)C(F)(F)F)cc1,IC50,Plasmodium falciparum [1],3.39 µM
COc1ccc2nc(Cl)c(/C=C3/C=C(c4ccc(C)cc4C)OC3=O)cc2c1,MIC,Plasmodium falciparum [4],10 µg/mL
C/C1=C\[C@H](C)C(=O)C[C@@H](O)/C(C)=C/[C@H](C)C[C@@H](C)CC[C@@H]([C@@H](C)C(=O)O)OC(=O)[C@@H](C)C1,IC50,Plasmodium falciparum [7],0.123 µM
CC1(C)C2CC=C(CC(=O)Nc3cccc4cccnc34)[C@@H]1C2,EC50,Plasmodium falciparum [9],2.19 µM
same,selectivity ratio,[10],> 62.3
same,CC50 at 72 h,[12],> 100 µM
same,EC50,Plasmodium falciparum [13],> 50 µM
same,EC50,Plasmodium falciparum [14],> 50 µM
C[C@H](C[C@H](O)[C@@H](O)C(C)(C)O)C1=C2C[C@H](O)[C@H]3[C@@]4(C)CCC(=O)C(C)(C)[C@@H]4CC[C@]3(C)[C@@]2(C)CC1 [ALISOL A],Retention_time,[18],23 min
same,IC50,Plasmodium falciparum [19],13.8 µM
C=CC(C)(C)c1cc(/C=C/C(=O)c2ccc(O)cc2)c(OC)cc1O [LICOAGROCHACONE A],IC50,Plasmodium falciparum [20],1.43 µg/mL
C=C[C@H]1CN2CC[C@H]1C[C@H]2[C@H](O)c1ccnc2ccc(OC)cc12 [QUININE],IC50,Plasmodium falciparum [5],0.026 µg/mL
